Values of other authors, collected in publication PMC2109944 (The Journal of Cell Biology, 1977).

Columns and labels:
mouse melanoma cells = settings: binding at low temperature, no prefixation
[1] = system: dissociated anterior pituitary cells
human fibroblasts = settings: 125I-epidermal growth factor

a-MSH
initial distribution of MSH receptor sites (mouse melanoma cells): initially distributed at one pole of the cell over the Golgi area

luteinizing hormone-releasing hormone [LHRH]
time to LH release by exocytosis after stimulation [1]: ≤ 1 min | desensitization after short-term exposure ([1]; short-term exposure): refractory to further stimulation by the peptide

epidermal growth factor: 125I-labelled epidermal growth factor, literature comparison
internalization of hormone-bearing receptors (human fibroblasts): internalized within hours of the binding taking place
